# US20070060636A1, “High enantiomeric purity dexanabinol for pharmaceutical compositions” (priority 2002, published 2007)
# Like-named read-outs stand apart in the source and are kept apart here.
# Experiments:
# [1] = CREMOPHOR EL:ethanol formulations, dissolution and stability after dilution in saline; assay type: physicochemical; details: for Stability following dilution in saline, Dilution 1/5 / Stability following dilution in saline, Dilution 1/10 / Stability following dilution in saline, Dilution 1/20: monitored 24 hours
# Experimental: Once it was established that a cosolvent formulation made of CREMOPHOR EL® (polyoxyl 35 castor oil) and ethanol is appropriate to dissolve the drug, a matrix of such formulations was prepared at various concentrations (from 30 to 70% w/w of each ingredient) and with increasing amounts of dexanabinol of high enantiomeric purity (20, 50 and 100 mg/ml). The exact composition of these formulations is described in the left hand side of Table 5. The drug cosolvent concentrates were diluted at various ratios in saline and the stability of the drug in the resulting solutions was monitored for 24 hours.
# [2] = Phase II study, single i.v. dose in patients with severe head trauma; assay type: in vivo, human; details: human, plasma, iv, severe TBI patients, mean ± SE; for AUC / Cmax: up to 24 hr; for Vd: read-out: Vss
# Experimental: (§1) A Phase II, double masked, multi-center study was conducted to evaluate the safety and tolerance of dexanabinol of high enantiomeric purity following a single intravenous administration in patients with severe head trauma (Knoller N. et al., Crit. Care Med. 30: 548-54, 2002). Treatment was administered within 6 hours of injury, based on the therapeutic window observed in relevant animal models. Additional objectives of the study were to evaluate the long-term outcome of the patients and to determine the optimal dose for Phase III studies.
# (§2) Medical information was collected en route or upon arrival at the hospital to determine a patient's suitability for enrollment and a randomized patient number was assigned. Written informed consent was obtained from relatives, all eligible patients being in coma. Antihistamines (promethazine hydrochloride PHENERGAN® 25 mg and cimetidine 50 mg) were administered by intravenous bolus injection 15 minutes prior to study drug administration. Dexanabinol was manufactured and formulated as previously described (50 mg/ml in CREMOPHOR EL®:ethanol clinical formulation) and diluted into 100 ml saline prior to injection. Solutions of dexanabinol were infused intravenously using a peristaltic pump (Ivac) at a rate of 6 ml/min (or approximately 15 min/dose). The total doses of dexanabinol scheduled to be administered were 48, 150, or 200 mg per patient. Five milliliters of blood were removed (from the contralateral arm) at the end of the infusion, at 10 and 30 min, and at 1, 3, 6, 12, and 24 hours thereafter for determination of plasma dexanabinol concentrations. Pharmacokinetic parameters were estimated by non-compartmental methods (WinNonlin Professional version 3.2) up to 24 hr post-injection.
# (§3) Primary end points included intracranial pressure (ICP), cardiovascular function (heart rate, mean arterial blood pressure, cerebral perfusion pressure and electrocardiogram), clinical laboratory tests, and adverse medical events. The clinical outcome was assessed by the Glasgow outcome scale throughout a six month follow-up period. The nature and incidence of adverse medical events were similar in all groups supporting the safety of dexanabinol of high enantiomeric purity. […] Dexanabinol is currently being tested in a Phase III clinical trial for TBI.
# [3] = system: severe traumatic brain injury (TBI); experiment: as above; assay type: in vivo, human; details: for AUC∞/Dose: severe TBI patients, mean ± SE, normalized for dose (mg/kg)
# Experimental: as §1, §2, §3
# [4] = system: intra-ocular pressure (IOP); experiment: IOP lowering after topical administration in normotensive rabbits; assay type: in vivo, New Zealand White albino rabbits
# Experimental: New Zealand White albino rabbits weighing 2-2.5 kg were acclimatized in our animal facility for at least a week prior to IOP measurements. Drug, saline and blank-vehicle groups (n=8-12 animals per group) were included. In most experiments, 50 μl drops were applied at 09:00 and measurements were taken 1 hour, 3, 5, and 7 hours later. Baseline IOP was individualized for each animal and time point prior to drug testing. IOP was measured by a Digilab Pneumatonometer, Model 30R. ΔIOP was calculated by subtracting the baseline IOP from IOP value measured after drug application at a corresponding time point. Maximal ΔIOP and area under the ΔIOP×hours curve (AUC) were calculated and averaged for each group. Data of IOP, AUC, blood pressure and toxicity were analyzed by the Wilcoxon-Rank test.
# [5] = 20 mg/ml in 30% CREMOPHOR EL/70% ethanol
# [6] = 20 mg/ml in 50% CREMOPHOR EL/50% ethanol
# [7] = 20 mg/ml in 70% CREMOPHOR EL/30% ethanol
# [8] = 50 mg/ml in 30% CREMOPHOR EL/70% ethanol
# [9] = 50 mg/ml in 50% CREMOPHOR EL/50% ethanol
# [10] = 50 mg/ml in 70% CREMOPHOR EL/30% ethanol
# [11] = 100 mg/ml in 30% CREMOPHOR EL/70% ethanol
# [12] = 100 mg/ml in 50% CREMOPHOR EL/50% ethanol
# [13] = 100 mg/ml in 70% CREMOPHOR EL/30% ethanol
# [14] = 48 mg single i.v. infusion (n = 10)
# [15] = 150 mg single i.v. infusion (n = 20)
# [16] = 200 mg single i.v. infusion (n = 21)
smiles,measurement,setting,value
"CCCCCCC(C)(C)c1cc(O)c2c(c1)OC(C)(C)[C@H]1CC=C(CO)C[C@H]21 [dexanabinol, 1,1-dimethylheptyl-(3S,4S)-7-hydroxy-Δ^6-tetrahydrocannabinol]",amount of dexanabinol dissolved by CREMOPHOR EL:ethanol cosolvent formulations,[1],at least 100 mg/ml
same,"Stability following dilution in saline, Dilution 1/5",[1]; [5],Stable
same,"Stability following dilution in saline, Dilution 1/10",[1]; [5],Stable
same,"Stability following dilution in saline, Dilution 1/20",[1]; [5],Stable
same,"Stability following dilution in saline, Dilution 1/5",[1]; [6],Stable
same,"Stability following dilution in saline, Dilution 1/10",[1]; [6],Stable
same,"Stability following dilution in saline, Dilution 1/20",[1]; [6],Stable
same,"Stability following dilution in saline, Dilution 1/5",[1]; [7],Stable
same,"Stability following dilution in saline, Dilution 1/10",[1]; [7],Stable
same,"Stability following dilution in saline, Dilution 1/20",[1]; [7],Stable
same,"Stability following dilution in saline, Dilution 1/5: crystals appeared at",[1]; [8],appeared at 2 hours
same,"Stability following dilution in saline, Dilution 1/10: crystals appeared at",[1]; [8],2 h
same,"Stability following dilution in saline, Dilution 1/20: crystals appeared at",[1]; [8],2.5 h
same,"Stability following dilution in saline, Dilution 1/5: stable at least",[1]; [9],least 7 hours
same,"Stability following dilution in saline, Dilution 1/10: stable at least",[1]; [9],least 4 hours
same,"Stability following dilution in saline, Dilution 1/20: stable at least",[1]; [9],≥ 7 h
same,"Stability following dilution in saline, Dilution 1/5: stable at least",[1]; [10],least 7 hours
same,"Stability following dilution in saline, Dilution 1/10: stable at least",[1]; [10],least 7 hours
same,"Stability following dilution in saline, Dilution 1/20: stable at least",[1]; [10],≥ 7 h
same,stability after dilution with saline,"[1]; 50 mg/ml in 70:30 CREMOPHOR EL:ethanol, all ratios from 1:5 to 1:20",stable
same,"Stability following dilution in saline, Dilution 1/5: crystals appeared at",[1]; [11],45 min
same,"Stability following dilution in saline, Dilution 1/10: crystals appeared at",[1]; [11],0.917 h
same,"Stability following dilution in saline, Dilution 1/20: crystals appeared at",[1]; [11],1.5 h
same,"Stability following dilution in saline, Dilution 1/5: crystals appeared at",[1]; [12],90 min
same,"Stability following dilution in saline, Dilution 1/10: crystals appeared at",[1]; [12],1.5 h
same,"Stability following dilution in saline, Dilution 1/20: crystals appeared at",[1]; [12],1.5 h
same,"Stability following dilution in saline, Dilution 1/5: crystals appeared at",[1]; [13],appeared at 2 hours
same,"Stability following dilution in saline, Dilution 1/10: crystals appeared at",[1]; [13],2 h
same,"Stability following dilution in saline, Dilution 1/20: crystals appeared at",[1]; [13],3.5 h
same,AUC(0-inf),[2]; [14],572 ng·h/mL
same,MRT,[2]; [14],4.1 ± 0.7 h
same,clearance,[2]; [14],22.6 ± 3.9 mL/min/kg
same,half-life,[2]; [14],7 ± 0.9 h
same,AUC,[2]; [14],548 ng·h/mL
same,Cmax,[2]; [14],1150 ng/mL
same,Vd,[2]; [14],6.6 ± 2.6 L/kg
same,AUC(0-inf),[2]; [15],1480 ng·h/mL
same,MRT,[2]; [15],3.8 ± 0.4 h
same,clearance,[2]; [15],31 ± 5.8 mL/min/kg
same,half-life,[2]; [15],5.3 ± 0.5 h
same,AUC,[2]; [15],1450 ng·h/mL
same,Cmax,[2]; [15],1970 ng/mL
same,Vd,[2]; [15],7.5 ± 1.5 L/kg
same,AUC(0-inf),[2]; [16],3250 ng·h/mL
same,MRT,[2]; [16],3.5 ± 0.3 h
same,clearance,[2]; [16],17.6 ± 1.9 mL/min/kg
same,half-life,[2]; [16],6.3 ± 0.3 h
same,AUC,[2]; [16],3170 ng·h/mL
same,Cmax,[2]; [16],5790 ng/mL
same,Vd,[2]; [16],4.2 ± 0.9 L/kg
same,AUC∞/Dose,[3]; [14],"51,846 ± 5,526 ng × min/ml"
same,AUC∞/Dose,[3]; [15],"43,542 ± 4,329 ng × min/ml"
same,AUC∞/Dose,[3]; [16],"69,007 ± 5,835 ng × min/ml"
same,neurological outcome,"[3]; Glasgow outcome scale, six month follow-up",trend toward faster and better neurological outcome
same,Cmax Ratio to Phase II,"[3]; human Phase II, 150 mg single i.v., reference itself",1.0
same,safety in severe head injury,"[3]; single i.v. 48, 150 or 200 mg within 6 hours of injury",safe and well tolerated
same,intracranial pressure/cerebral perfusion pressure control,"[3]; treated patients, without jeopardizing blood pressure",significantly better
same,AUC (ΔIOP×hours),[4]; 0.02% topical,6.4±2.5 mmHg×Hour
same,maximal ΔIOP,[4]; 0.02% topical,1.8±0.7 mmHg
same,AUC (ΔIOP×hours),[4]; 0.05% topical,5.1±3.7 mmHg×Hour
same,maximal ΔIOP,[4]; 0.05% topical,1.8±0.9 mmHg
same,maximal ΔIOP,[4]; 0.1% topical,2.9±0.4 mmHg
same,AUC (ΔIOP×hours),"[4]; 0.1% topical, ±SEM",14.6±2.2 mmHg×Hour
same,AUC (ΔIOP×hours),[4]; 0.2% topical,6.9±1.7 mmHg×Hour
same,maximal ΔIOP,[4]; 0.2% topical,2.2±0.6 mmHg
same,IOP lowering effect compared to the vehicle and the saline,"[4]; all doses 0.02%, 0.05%, 0.1%, 0.2%, masked study","small, yet statistically significant"
same,IOP lowering effect over three days,"[4]; daily application for three days, n=8",sustained IOP lowering effect
